From ChEMBL document CHEMBL3046319, “PCR-RFLP detection of the E198A mutation conferring resistance to benzimidazoles in field isolates of Monilinia laxa from Greece” (Crop Prot, 2012)
Values after ≈ are worked out from the molar mass of the structure shown. Active and inactive are the calls of the source. No cut-off for these calls is given here.

Columns and labels:
Monilinia laxa [1] = assay: Fungicidal activity against Monilinia laxa isolate MLG2 assessed as reduction in mycelial growth rate at 25 degC after 4 days; assay type: functional, organism-based; conditions: isolate MLG2, 96 h
Monilinia laxa [2] = assay: Fungicidal activity against Monilinia laxa isolate MLK12 assessed as reduction in mycelial growth rate at 1 to 10 ug/ml at 28 degC after 8 days; assay type: functional, organism-based
Monilinia laxa [3] = assay: Fungicidal activity against Monilinia laxa isolate MLC2 assessed as mycelial growth at 1 ug/ml at 25 degC after 4 days; assay type: functional
Monilinia laxa [4] = assay: Fungicidal activity against Monilinia laxa isolate MLC6 assessed as reduction in mycelial growth rate at 1 to 10 ug/ml at 31 degC after 5 days; assay type: functional, organism-based
Monilinia laxa [5] = assay: Fungicidal activity against Monilinia laxa isolate KX1 assessed as reduction in mycelial growth rate at 1 to 10 ug/ml at 31 degC after 5 days; assay type: functional, organism-based
Monilinia laxa [6] = assay: Fungicidal activity against Monilinia laxa isolate MLC3 assessed as reduction in mycelial growth rate at 1 to 10 ug/ml at 25 to 28 degC; assay type: functional, organism-based
Monilinia laxa [7] = assay: Fungicidal activity against Monilinia laxa isolate MLG5 assessed as reduction in mycelial growth rate at 1 to 10 ug/ml at 31 degC after 5 days; assay type: functional, organism-based
Monilinia laxa [8] = assay: Fungicidal activity against Monilinia laxa isolate MLC1 assessed as reduction in mycelial growth rate at 1 to 10 ug/ml at 31 degC after 5 days; assay type: functional, organism-based
Monilinia laxa [9] = assay: Fungicidal activity against Monilinia laxa isolate MLK2 assessed as reduction in mycelial growth rate at 1 to 10 ug/ml at 31 degC after 5 days; assay type: functional, organism-based
Monilinia laxa [10] = assay: Fungicidal activity against Monilinia laxa isolate MLB1 assessed as reduction in mycelial growth rate at 1 to 10 ug/ml at 28 degC after 8 days; assay type: functional, organism-based
Monilinia laxa [11] = assay: Fungicidal activity against Monilinia laxa isolate MLX5 assessed as reduction in mycelial growth rate at 1 to 10 ug/ml at 28 degC after 8 days; assay type: functional, organism-based
Monilinia laxa [12] = assay: Fungicidal activity against Monilinia laxa isolate MLC6 assessed as reduction in mycelial growth rate at 25 degC after 4 days; assay type: functional, organism-based; conditions: isolate MLC6, 96 h
Monilinia laxa [13] = assay: Fungicidal activity against Monilinia laxa isolate MLA1 assessed as mean number of conidia produced in the colony at 25 degC after 12 days by haemocytometer; assay type: functional
Monilinia laxa [14] = assay: Fungicidal activity against Monilinia laxa isolate MLX5 assessed as mycelial growth at 1 ug/ml at 25 degC after 4 days; assay type: functional
Monilinia laxa [15] = assay: Fungicidal activity against Monilinia laxa isolate MLK1 assessed as virulence in prune fruits assessed as virulence treated 10 min prior to mycelial inoculation at 24 degC after 10 days relative to isolate MLX1by pathogenicity bioassay; assay type: functional
Monilinia laxa [16] = assay: Fungicidal activity against Monilinia laxa isolate MLK1 assessed as mean number of conidia produced in the colony at 25 degC after 12 days by haemocytometer; assay type: functional
Monilinia laxa [17] = assay: Fungicidal activity against Monilinia laxa isolate MLP7 assessed as reduction in mycelial growth rate at 1 to 10 ug/ml at 31 degC after 5 days; assay type: functional, organism-based
Monilinia laxa [18] = assay: Fungicidal activity against Monilinia laxa isolate MLBO4 assessed as reduction in mycelial growth rate at 25 degC after 4 days; assay type: functional, organism-based; conditions: isolate MLBO4, 96 h
Monilinia laxa [19] = assay: Fungicidal activity against Monilinia laxa isolate MLG4 assessed as reduction in mycelial growth rate at 1 to 10 ug/ml at 31 degC after 5 days; assay type: functional, organism-based
Monilinia laxa [20] = assay: Fungicidal activity against Monilinia laxa isolate MLP4 assessed as reduction in mycelial growth rate at 1 to 10 ug/ml at 25 to 28 degC; assay type: functional, organism-based
Monilinia laxa [21] = assay: Fungicidal activity against Monilinia laxa isolate MLBO7 assessed as reduction in mycelial growth rate at 25 degC after 4 days; assay type: functional, organism-based; conditions: isolate MLBO7, 96 h
Monilinia laxa [22] = assay: Fungicidal activity against Monilinia laxa isolate MLG3 assessed as reduction in mycelial growth rate at 25 degC after 4 days; assay type: functional, organism-based; conditions: isolate MLG3, 96 h
Monilinia laxa [23] = assay: Fungicidal activity against Monilinia laxa isolate MLA1 assessed as reduction in mycelial growth rate at 25 degC after 4 days; assay type: functional, organism-based; conditions: isolate MLA1, 96 h
Monilinia laxa [24] = assay: Fungicidal activity against Monilinia laxa isolate MLC2 assessed as reduction in mycelial growth rate at 25 degC after 4 days; assay type: functional, organism-based; conditions: isolate MLC2, 96 h
Monilinia laxa [25] = assay: Fungicidal activity against Monilinia laxa isolate MLAl8 assessed as reduction in mycelial growth rate at 1 to 10 ug/ml at 25 to 28 degC; assay type: functional, organism-based
Monilinia laxa [26] = assay: Fungicidal activity against Monilinia laxa isolate MLK1 assessed as reduction in mycelial growth rate at 1 to 10 ug/ml at 28 degC after 8 days; assay type: functional, organism-based
Monilinia laxa [27] = assay: Fungicidal activity against Monilinia laxa isolate MLKS2 assessed as reduction in mycelial growth rate at 25 degC after 4 days; assay type: functional, organism-based; conditions: isolate MLKS2, 96 h
Monilinia laxa [28] = assay: Fungicidal activity against Monilinia laxa isolate MLC5 assessed as reduction in mycelial growth rate at 25 degC after 4 days; assay type: functional, organism-based; conditions: isolate MLC5, 96 h
Monilinia laxa [29] = assay: Fungicidal activity against Monilinia laxa isolate MLK6 assessed as reduction in mycelial growth rate at 25 degC after 4 days; assay type: functional, organism-based; conditions: isolate MLK6, 96 h
Monilinia laxa [30] = assay: Fungicidal activity against Monilinia laxa isolate MLK4 assessed as reduction in mycelial growth rate at 25 degC after 4 days; assay type: functional, organism-based; conditions: isolate MLK4, 96 h
Monilinia laxa [31] = assay: Fungicidal activity against Monilinia laxa isolate MLK12 assessed as mean mycelial colony diameter at 25 degC after 4 days; assay type: functional
Monilinia laxa [32] = assay: Fungicidal activity against Monilinia laxa isolate MLK1 assessed as reduction in mycelial growth rate at 1 to 10 ug/ml at 25 to 28 degC; assay type: functional, organism-based
Monilinia laxa [33] = assay: Fungicidal activity against Monilinia laxa isolate MLX1 assessed as reduction in mycelial growth rate at 1 to 10 ug/ml at 31 degC after 5 days; assay type: functional, organism-based
Monilinia laxa [34] = assay: Fungicidal activity against Monilinia laxa isolate KX4 assessed as reduction in mycelial growth rate at 1 to 10 ug/ml at 31 degC after 5 days; assay type: functional, organism-based
Monilinia laxa [35] = assay: Fungicidal activity against Monilinia laxa isolate MLK5 assessed as reduction in mycelial growth rate at 25 degC after 4 days; assay type: functional, organism-based; conditions: isolate MLK5, 96 h
Monilinia laxa [36] = assay: Fungicidal activity against Monilinia laxa isolate MLBO5 assessed as virulence in prune fruits assessed as virulence treated 10 min prior to mycelial inoculation at 24 degC after 10 days relative to isolate MLX1by pathogenicity bioassay; assay type: functional
Monilinia laxa [37] = assay: Fungicidal activity against Monilinia laxa isolate MLBO2 assessed as reduction in mycelial growth rate at 25 degC after 4 days; assay type: functional, organism-based; conditions: isolate MLBO2, 96 h
Monilinia laxa [38] = assay: Fungicidal activity against Monilinia laxa isolate MLX2 assessed as reduction in mycelial growth rate at 25 degC after 4 days; assay type: functional, organism-based; conditions: isolate MLX2, 96 h
Monilinia laxa [39] = assay: Fungicidal activity against Monilinia laxa isolate MLK24 assessed as reduction in mycelial growth rate at 1 to 10 ug/ml at 31 degC after 5 days; assay type: functional, organism-based
Monilinia laxa [40] = assay: Fungicidal activity against Monilinia laxa isolate MLA1 assessed as virulence in prune fruits assessed as virulence treated 10 min prior to mycelial inoculation at 24 degC after 10 days relative to isolate MLX1by pathogenicity bioassay; assay type: functional
Monilinia laxa [41] = assay: Fungicidal activity against Monilinia laxa isolate MLK9 assessed as reduction in mycelial growth rate at 25 degC after 4 days; assay type: functional, organism-based; conditions: isolate MLK9, 96 h

In the case of `COC(=O)Nc1nc2ccccc2[nH]1` [CARBENDAZIM], the EC50 (Monilinia laxa [1]) is reported as 0.08 µg/mL (≈ 0.418 µM), the inhibition (Monilinia laxa [2]) is reported as “inactive” and the Activity (Monilinia laxa [3]) is reported as 98.28%. For the same molecule, the inhibition (Monilinia laxa [4]) was “Active”, the inhibition (Monilinia laxa [5]) was “Active” and the inhibition (Monilinia laxa [6]) was “inactive”. For the same molecule, the inhibition (Monilinia laxa [7]) was “Active”, the inhibition (Monilinia laxa [8]) was “Active” and the inhibition (Monilinia laxa [9]) was “Active”. For the same molecule, the inhibition (Monilinia laxa [10]) was “inactive”, the inhibition (Monilinia laxa [11]) was “inactive” and the EC50 (Monilinia laxa [12]) was 0.12 µg/mL (≈ 0.628 µM). The Activity (Monilinia laxa [13]) was 5 /cm2, the Activity (Monilinia laxa [14]) was 0% and the Activity (Monilinia laxa [15]) was 97.77%. For the same molecule, the Activity (Monilinia laxa [16]) was 6.55 /cm2, the inhibition (Monilinia laxa [17]) was “Active” and the EC50 (Monilinia laxa [18]) was 0.05 µg/mL (≈ 0.262 µM). For the same molecule, the inhibition (Monilinia laxa [19]) was “Active”, the inhibition (Monilinia laxa [20]) was “inactive” and the EC50 (Monilinia laxa [21]) was 0.1 µg/mL (≈ 0.523 µM). For the same molecule, the EC50 (Monilinia laxa [22]) was 0.08 µg/mL (≈ 0.418 µM), the EC50 (Monilinia laxa [23]) was 0.06 µg/mL (≈ 0.314 µM) and the EC50 (Monilinia laxa [24]) was greater than 50 µg/mL. For the same molecule, the inhibition (Monilinia laxa [25]) was “inactive”, the inhibition (Monilinia laxa [26]) was “inactive” and the EC50 (Monilinia laxa [27]) was 0.01 µg/mL (≈ 0.0523 µM). For the same molecule, the EC50 (Monilinia laxa [28]) was 0.11 µg/mL (≈ 0.575 µM), the EC50 (Monilinia laxa [29]) was greater than 50 µg/mL and the EC50 (Monilinia laxa [30]) was greater than 50 µg/mL. For the same molecule, the Activity (Monilinia laxa [31]) was 31 mm, the inhibition (Monilinia laxa [32]) was “inactive” and the inhibition (Monilinia laxa [33]) was “Active”. For the same molecule, the inhibition (Monilinia laxa [34]) was “Active”, the EC50 (Monilinia laxa [35]) was greater than 50 µg/mL and the Activity (Monilinia laxa [36]) was 100%. For the same molecule, the EC50 (Monilinia laxa [37]) was 0.18 µg/mL (≈ 0.941 µM), the EC50 (Monilinia laxa [38]) was 0.12 µg/mL (≈ 0.628 µM) and the inhibition (Monilinia laxa [39]) was “Active”. The Activity (Monilinia laxa [40]) was 90.33% and the EC50 (Monilinia laxa [41]) was 0.08 µg/mL (≈ 0.418 µM).
